Source: patent US20260355180A1, “COMPOSITIONS AND METHODS FOR SPLICEOSOME-TARGETED THERAPIES” (Institute for Cancer Research d/b/a The Research Institute …, priority 2022, published 2026)
Entries after “also recorded” stand apart in the source; their conditions may differ.

Legend:
ZBP1-KO RPPM631 cells = test: Viability of ZBP1-KO RPPM631 cells; type: cell-based, mouse; conditions: PlaB
Excerpt: Next, we prepared ZBP1-KO RPPM631 cells to determine whether the necroptosis was ZBP-1 dependent.

H82 SCLC cells [1] = test: RIPK1 depletion rescue of PlaB cytotoxicity, H82; type: cell-based; conditions: 18 hours of PlaB, RIPK1 depleted H82
Experimental: (§1) FIG. 2A) SCLC cell lines (H446 and H82) and immortalized fibroblasts (FC1010 and HS68) cell survival curves after 72 hours of PlaB treatment. FIG. 2B) RIPK1 depletion rescues H82 and H446 cell survival after 18 hours of PlaB treatment. FIG. 2C) Western blot showing RIPK1 protein depletion. Mean±SEM, Welch's t test *p<0.05, **p<0.01.
(§2) Cancer deregulates splicing^31,32, and we hypothesized that hyper-proliferative SCLCs are dependent on splicing machineries for increased tumorigenicity^90.

H446 SCLC cells [2] = test: Antigen (HLA-ABC) and PD-L1 expression, H446; type: cell-based, human; conditions: 48 hours of 0.5 nM PlaB
Excerpt: (§3) FIG. 3A-3D: SF3B1 inhibition induces a potent IFN response and increases expression of IFN-regulated proteins. […] Mean±SEM, two-tailed unpaired Student's t test *p<0.05, **p<0.01, ***p<0.001, ****p<0.0001.
(§4) We also observed that SF3B1 inhibition triggers robust anti-tumor response and upregulates IFN-β, IFN-γ, and IFN-responsive genes by real-time reverse-transcription quantitative polymerase chain reaction (rRT-qPCR) in H446 and H82 cells (FIGS. 3A and 3B). […] These observations indicate that spliceosome inhibition is useful as a targeted therapy for SCLCs.

MEF RA cells = test: pMLKL western blot / necroptosis, MEF RHIM-A mutant (RA); type: cell-based, mouse; conditions: 2.5 nM PlaB, 18 hours
Experimental: (§5) FIG. 5A-5E: SF3B1 perturbation upregulates A-RNA and Z-nucleic acids in MEFs. (FIG. 5A) 5 nM of PlaB induces A-RNA and Z-Nucleic acids in ΔZBP1 MEF cells. (FIG. 5B) Quantification of A-RNA and Z-Nucleic acids. […] Plots of signal intensity are mean±SEM, two-tailed unpaired Student's t test *p<0.05, ***p<0.001, ****p<0.0001. 18 hours of PlaB treatment for IF, WB and rescue experiments. IF: 5 nM PlaB, WB and rescue experiments: 2.5 nM PlaB.
(§6) Since induction of Z-nAs can result in ZBP1-dependent necroptosis, we analyzed induction of necroptosis in necroptotic competent MEFs using spliceosome inhibition. […] We also determined that MEFs ΔZBP1, WT, and Flag-ZBP1 cells treated with PlaB began dying within 24hours after treatment. With MEF Flag-ZBP1 cells showing only 20% survival after 24 hours (FIG. 16).

H446 cells = test: MAVS knock out rescue of PlaB-mediated cell death, H446; type: cell-based, human; conditions: MAVS KO H446; data not shown
Excerpt: Currently, ZBP1 and ADAR1 are the only two known proteins harbor Zα and interact with Z-NAs^104-109.

RPPM631 cells = test: A-RNA and Z-NA accumulation in RPPM631 cells; type: cell-based, mouse; conditions: 25 nM PLAB
Experimental: Additionally, SF3B1 inhibition was directly compared to SF3B1 knockout in the mouse SCLC cell line RPPM631. RPPM631 cells were treated with 25 nM PLAB and analyzed for their accumulation of Z-NA and A-RNA. […] (FIG. 12) Next, SF3B1-KO RPPM631 cells were generated and analyzed using immunc-fluorescence technique.

H82 SCLC cells [3] = test: IFN response by rRT-qPCR, H82; type: cell-based; conditions: dose-dependent
Excerpt: as §3, §4

WT MEF cells = test: Survival of PlaB treated MEF WT; type: cell-based, mouse
Experimental: FIG. 16: Analysis of the effect of spliceosome inhibition on necroptosis in WT MEF cells. EV refers to cells treated with an empty vector.
as §6

MEF ΔZα cells = test: pMLKL western blot / necroptosis, MEF ΔZα; type: cell-based, mouse; conditions: 2.5 nM PlaB, 18 hours
Experimental: as §5, §6

MEF cells = test: A-RNA and Z-NA in MEF after PlaB with or without nucleases; type: cell-based, mouse
Experimental: FIG. 11A-11B: Analysis of Z-NA and A-RNA sources. (FIG. 11A) […] A-Nucleic acid accumulation in MEF cells after treatment with PlaB with or without Dnasel, RnaseA, or Rnase H. (FIG. 11B) Quantification of A-RNA and Z-Nucleic acids in treated cells. MEF EV refers to MEF cells treated with an empty vector.
The increases in A-RNA and Z-NA was further analyzed in MEF cells. Cells were treated with PlaB alone, or in combination with dNasel (dsDNA), rNaseA(dsRNA at [high]), or […] (DNA/RNA hybrid). […] (FIG. 11A-11B).

MEF Flag-ZBP1 cells = test: pMLKL western blot / necroptosis, MEF Flag-ZBP1; type: cell-based, mouse; conditions: 2.5 nM PlaB, 18 hours, MEF Flag-ZBP1 (full-length ZBP1)
Experimental: as §5, §6

H446 SCLC cells [4] = test: RIPK1 depletion rescue of PlaB cytotoxicity, H446; type: cell-based, human; conditions: 18 hours of PlaB, RIPK1 depleted H446
Experimental: as §1, §2

[5] = PlaB and dNasel, rNaseA, or RnaseH

Structure (SMILES): CCC(O)C(C)C1OC1CC(C)C=CC=C(C)C1OC(=O)CC(O)CCC(C)(O)C(OC(C)=O)C=CC1C (stereo not drawn) [PlaB, Pladienolide B]
- viability (ZBP1-KO RPPM631 cells): only a minor decrease in viability
- cell survival upon RIPK1 depletion (H82 SCLC cells [1]): rescues
- PD-L1 expression (H446 SCLC cells [2]): effectively upregulates
- antigen expression (H446 SCLC cells [2]): effectively upregulates
- pMLKL (necroptosis) (MEF RA cells; MEF RA): not triggered
- PlaB-mediated necroptosis (MEF RA cells; MEF RHIM-A mutant): avoid PlaB-mediated necroptosis
- rescue of PlaB-mediated cell death by MAVS knock out (H446 cells): only minimally rescue
- A-RNA accumulation (RPPM631 cells): increase
- Z-NA accumulation (RPPM631 cells): increase
- IFN response (H82 SCLC cells [3]): induces potent IFN response
- time after treatment at which cells began dying (WT MEF cells): ≤ 24 h
- pMLKL (necroptosis) (MEF ΔZα cells; MEF ΔZα): not triggered
- PlaB-mediated necroptosis (MEF ΔZα cells; MEF ΔZα mutant): avoid PlaB-mediated necroptosis
- A-RNAs and Z-nAs (MEF cells; PlaB alone): increase in both A-RNAs and Z-nAs
- A-RNAs and Z-nAs (MEF cells; [5]): still showed an increase in A-RNAs and Z-nAs
- increase in A-RNAs relative to PlaB alone (MEF cells; [5]): not as robust as PlaB alone
- pMLKL (necroptosis) (MEF Flag-ZBP1 cells): triggered pMLKL; also recorded: induction of pMLKL
- cell survival upon RIPK1 depletion (H446 SCLC cells [4]): rescues
